Earlier results, collected in US20210330638A1, “NANO-PENETRATIVE CANNABINOID OIL BLENDS AND COMPOSITIONS AND METHODS OF FORMULATION THEREOF” (Theragun, Inc., priority 2020, published 2021).

Conditions: in vivo

pulmonary uptake: 60%
Structure (SMILES): CC1=CCC2CC1C2(C)C (stereo not drawn) [a-Pinene, alpha-pinene]
